These results are taken from patent US10857128B2, “Methods and compositions for treating inflammatory diseases” (Helmholtz Zentrum München Deutsches Forschungszentrum für …, priority 2017, dated 2020).

Experiment [1] relates to CCL17 secretion of human Hodgkin lymphoma KM-H2 cells. Description: CCL17 secretion bioassay with KM-H2 cells (ELISA). The format is cell-based. The settings on record: different concentrations, 24 h. On the procedure: Human T cell line KM-H2. The human Hodgkin lymphoma T cell line (KM-H2) was purchased from the Leibniz Institute DSMZ-German Collection of Microorganisms and Cell Cultures, Braunschweig, Germany. 3-5×10^6 KM-H2 cells were grown in 4 mL RPMI 1640 per well in 6-well-plates (Nunc, Wiesbaden, Germany). All eukaryotic cells were cultured in 5% CO2 at 37° C. (HeraCell 240 and Heraeus BDD 6220, Thermo Fisher Scientific, Waltham, USA). Viability of cells after treatment with bacterial supernatants was assessed by trypan blue, 7-AAD and CellTiter-Blue® staining. (FIG. 9A-C)
Quantification of CCL17 and cytokines in eukaryotic cell culture supernatants. CCL17 was quantified in cell culture supernatants of KM-H2 cells using ELISA reagent Quantikine CCL17/TARC, (R&D Systems, Minneapolis, USA) according to the manufacturer's instructions (ELISA reader MRXII, Thermo Fisher Scientifc, Waltham, USA).
Bioassays for screening for immune modulatory activity in probiotic supernatants. Two biological assays based on down-modulation of costimulatory molecules on human DCs, and of CCL17-secretion by a human Hodgkin lymphoma T cell line (KM-H2) were set up. […]
Similarly, 200 μL supernatants were added to 3-5×10^6 KM-H2 cells for 24 h. Supernatants were collected from KM-H2 by centrifugation and stored at −80° C. until quantification of CCL17. […]
On the technique in general: In an ELISA, binding on a coated surface is turned into a signal by an enzyme label.

In experiment [2] the test system is allergic airway inflammation. The experiment can be described thus: Ovalbumin-induced allergic airway inflammation (AAI) in mice with oral D-tryptophan. The class given is in vivo, Balb/c mice. On the procedure:
Isolation of intestinal lamina propria cells. Total colons were excised from mice, removed from mesenteries, opened longitudinally and cut into 2 cm long pieces that were incubated for 30 min in 30 mM EDTA in PBS on ice and then shaken vigorously with PBS to remove epithelial cells. After further cutting into small pieces with sharp scissors these were digested at 37° C. in RMPI supplemented with 1 mg/mL collagenase D (Roche Diagnostics, Mannheim, Germany) and 10 mg/ml DNAse I (Sigma-Aldrich, St. Louis, USA). Cells were separated by a 40/80% (w/v) Percoll (GE Healthcare, Chalfont St. Giles, UK) density centrifugation step and washed prior to staining for flow cytometry analysis.
Costimulatory molecules on human DCs. The following primary monoclonal antibodies were used: CD83 fluorescein isothiocyanate (FITC); CD1a phycoerythrin (PE); CD86-FITC; CD80-PE; CD14 allophycocyanine (APC); CD40-APC; CD3-peridinin chlorophyll protein (PerCP); HLA-DR-PerCP; mouse immunoglobulins G1 (IgG1) mouse immunoglobulins G1 (IgG1) κ were used as isotype controls using the corresponding fluorochromes (all purchased from BD Biosciences, Heidelberg, Germany). To account for donor dependent variability of DC surface markers, all data were normalized to the expression induced by LPS which was set to 100% after subtraction of background values (FACS Canto, FACS DIVA software, Version 5.0.3, BD Biosciences, Heidelberg, Germany). Murine DC subsets and CD4^+ T cells. Single cell suspensions of splenocytes were obtained by filtering spleens through a 70 μm strainer. Samples were stained with CD3-PB (1:200, Biolegend, San Diego, USA), CD4-APC-H7 (BD, 1:400), CD11c-APC-Cy7 (1:100), Mhc-II-Percp-Cy5 (1:100), CD11b-FITC (1:100), CD80-AF647, CD40-APC (1:100). For intracellular cytokines, total spleen cells were stimulated with anti-CD3 (4 μg/mL, BD Bioscience, Heidelberg, Germany) and anti-CD28 (30 ng/mL, BD Bioscience, Heidelberg, Germany) for 16 h. 1×10^6 of total lung cells were stimulated for 16 h with MACSiBead particles coated with anti-CD3 and anti-CD28 using the T cell activation/expansion kit (Miltenyi Biotec, Bergisch Gladbach, Germany) in TexMACS medium (Miltenyi Biotec) according to the manufactures recommendations. Prior to staining, cells were treated with monensin (0.7 μL/mL, BD Golgi Stop, BD Bioscience, Heidelberg, Germany) for 6 h at 37° C. and intracellularly stained for II-4-PE (1:100, eBioscience, Vienna, Austria according to the manufacturer's protocols. Intracellular staining for Foxp3 was performed by using the Foxp3/Transcription Factor Staining buffer set (eBiosciences, Vienna, Austria) according to the manufacturer's recommendations.
Assessment of cytokines by cytometric bead array. Levels of II4, II5 and II13 were analysed in BALF and cell culture supernatants using an enhanced cytometric bead array (eCBA, Fex Set Kits, BD Biosciences, Franklin Lakes, N.J., USA) according to the manufacturer's guidelines.
Murine regulatory T cells. Cells were preincubated with Fc-Block (BD Bioscience, Heidelberg, Germany) for 5 min and stained for 20 min with the following antibodies: FITC-conjugated anti-CD3, Alexa-Fluor700-conjugated anti-CD4 and APC-eFluor780-conjugated CD45.2. For intracellular staining, cells were fixed and permeabilized with a commercially available fixation/permeabilization buffer (eBioscience, Vienna, Austria). LIVE/DEAD fixable Aqua dead stain kit (Invitrogen, Carlsbad, USA) was used prior to fixation. Intracellular staining was performed with PerCP-Cy5.5-conjugated anti-Foxp3 and Helios. Gates were set on live CD45^+CD3^+CD4^+ T cells. All antibodies were from eBioscience (Vienna, Austria). Cells were analyzed with a flow cytometer (Fortessa and LSRII, BD Bioscience, Heidelberg, Germany) and analyzed with Flowjo software (Flowjo LLC, Ashland, USA).
Induction of allergic airway inflammation. […]

Where [3] appears, read: AAI mice, 50 mM in drinking water.

`N[C@H](Cc1c[nH]c2ccccc12)C(=O)O` [D-tryptophan]: the “immune activity of synthetic tryptophan isomers in the CCL17 bioassay” value in experiment [1] was “dose dependent immune activity”. In experiment [2] (setting [3]), the “Helios+ Treg (lung)” value is recorded as “significantly increased”, the “II-4 producing T cells (lung)” value is “reduced”, the “Ifn-g-producing Th1 cells (lung)” value is “not” and the “airway hyperreactivity to methacholine” value is “improved”. For the same compound, in experiment [2] (setting [3]), the “eosinophils in BALF” value is “reduction” and the “total Foxp3+ cells (lung)” value is listed as “remained unchanged”. In experiment [2] (AAI mice, 50 mM in drinking water from 3 days before sensitization), the “total BALF cells” value is on record as “lowered”. Besides, the “II-4 levels in BALF” value in experiment [2] (AAI mice, 50 mM in drinking water, (trend)) is “reduced”. The “frequency of Foxp3+ T cells in the colon” value in experiment [2] (supplemented AAI mice compared to non-supplemented AAI mice) was “locally increased”.
